In patent US9393317B2, “Peptide-conjugated oligonucleotide therapeutic and method of making and using same” (Sloan-Kettering Institute for Cancer Research, priority 2008, dated 2016):

System: SVR (ATCC CRL-2280, a murine endothelial cell line) tumor allograft
Assay: In vivo phage display panning, angiosarcoma model
Parameters: species or system mouse
Settings: tumors resected 24 h post phage injection, 3-4 rounds of panning
Protocol: (§1) To identify peptide sequences displaying homing potential to specific tumors or to the vasculature of specific tumors, in vivo phage display panning was performed. Utilizing commercially available M13-based phage libraries (PhD-7 Prod# E8100S and PhD-C7C E8120S, New England Biolabs, Ipswich, Mass.) phage were isolated that were enriched after 3-4 rounds of panning in different tumor models. These phage particles display surface peptides that potentially confer homing and cellular uptake capabilities.
Panning was conducted in SVR (ATCC CRL-2280, a murine endothelial cell line) tumor allograft bearing mice. Tumors were resected 24 h post phage injection.

Row | Compound | Frequency of enriched sequence
1 | 10 (FPGGYTP; Angiosarcoma homing probe) [compound 10] | 11/15
2 | 11 (MFEPVLP; Angiosarcoma homing probe) [compound 11] | 1/15
3 | 12 (TLSKQST; Angiosarcoma homing probe) [compound 12] | 1/15
4 | 13 (TSLKMQV; Angiosarcoma homing probe) [compound 13] | 1/15
5 | 14 (ERVLMQV; Angiosarcoma homing probe) [compound 14] | 1/15

System: tumor endothelium of high-grade malignant glioma
Assay: Accumulation of FITC-labeled Grp78-GMBS-ASId1 in high-grade malignant glioma mouse model
Format: in vivo
Settings: retro-orbital injection, four hours post injection
Source text: In a further specific example, the therapeutic agent combines a Grp78 targeting peptide with an Id1 targeting antisense oligonucleotide. A therapeutic agent of this type was synthesized using the Grp-78 targeting peptide of Seq. ID No. 4, GMBS as the HBL, and Id1 antisense of Seq. ID No. 2, labeled with FITC and injected retro-orbitally into a mouse model with a high-grade malignant glioma. Four hours post injection the mouse was sacrificed, and tissue was processed for imaging.

Row | Compound | accumulation in imaged tissue | blood brain barrier crossing
6 | Grp78-GMBS-ASId1: Grp-78 targeting peptide of Seq. ID No. 4, GMBS as the HBL, Id1 antisense of Seq. ID No. 2, labeled with FITC (chain WIFPWIQL; antisense gcaccagctccttgaggcgugag; GMBS linker, FITC label; GRP78 homing peptide; antisense oligonucleotide targeting ID1.) | accumulate around tumor blood vessels | crossed the blood brain barrier

System: 4T1 (ATCC CRL-2539) tumor allograft
Assay: In vivo phage display panning, breast carcinoma model, tumor cell homing phage
Parameters: species or system mouse
Settings: tumors resected 24 h post phage injection, 3-4 rounds of panning
Protocol: as §1
Panning was conducted in 4T1 (ATCC CRL-2539) tumor allograft bearing mice. Tumors were resected 24 h post phage injection.

Row | Compound | Frequency of enriched sequence
7 | 15 (KWGSNNL; Breast Carcinoma homing probe) [compound 15] | 4/12
8 | 16 (YSMPAPV; Breast Carcinoma homing probe) [compound 16] | 2/12
9 | 17 (DSTRPHY; Breast Carcinoma homing probe) [compound 17] | 2/12
10 | 18 (KYESAPT; Breast Carcinoma homing probe) [compound 18] | 1/12
11 | 19 (TSMTSYR; Breast Carcinoma homing probe) [compound 19] | 1/12
12 | 20 (EKNLTRP; Breast Carcinoma homing probe) [compound 20] | 1/12
13 | 21 (HTPMALE; Breast Carcinoma homing probe) [compound 21] | 1/12

System: MMTV-HER2/neu (YD) Id1−/− tumor cells
Assay: MMTV-HER2/neu (YD) Id1−/− allograft model, osmotic pumps, with and without 17-AAG
Format: in vivo, mouse
Settings: Id1-PCAO 7 nmol/d s.c. pumps; F3 and Id1-AO each 20 nmol/d; 17-AAG i.p. 3 consecutive days per week; FIG. 7
Source text: Proc Natl Acad Sci USA 100, 12337-42 (2003)), perhaps due to the requirement of Hsp90 for maintaining Hif1-alpha or HER2/neu stability. Id1-PCAOs were therefore tested in combination with 17-AAG in the MMTV-HER2/neu (YD) Id1-/- allograft model. The Id1-PCAO was delivered in this prolonged experiment via subcutaneously implanted osmotic pumps (7 nmol/d). 17-AAG was given by intraperitoneal injection according to an established protocol, on 3 consecutive days per week after tumor establishment. As controls, saline or the un-conjugated components of the Id1-PCAO (F3-peptide and Id1-AO each at 20 nmol/d) were administered. […] To further control for non-specific effects we repeated the experiment using the same tumor model and added […] which was delivered at the same rate as the Id1-PCAO (7 nmol/d) and the F3-peptide without addition of Id1-AO (20 nmol/d) as control substances. […] The decrease in Id1-positive cells after administration of Id1-PCAO alone was less dramatic than in the intravenous protocol described above. This might be due to the slight decrease in dosage and the changed route of administration (s.c. vs. i.v.). […] Alternatively, animals were implanted s.c. with osmotic pumps (Durect Corp., Cupertino, Calif.) that delivered 7 nmol/d Id1-PCAO (3.5 mg/kg BW) in TBS over a 14 day period. Controls received 20 nmol/d F3-peptide plus 20 nmol/d Id1-AO (in TBS) or TBS. 2×106 MMTV-HER2/neu (YD) Id1-/- tumor cells were injected into the left flank 24 h after implantation of the pumps. After the 14 days treatment period, pumps were replaced using a model with a work period of 7 days. […] Control animals received DMSO:EPL 1:1 i.p at the same schedule. Tumor size was measured using a calliper. Volume was calculated as V=(/6×longest diameter×perpendicular diameter2). Image acquisition and analysis: Epifluorescence, bright field and phase contrast images were acquired using Zeiss Axiostar 200 microscopes. Leica laser confocal microscopes were used for co-localisation studies. For quantification, large fields of the tissue sections were acquired using an automated image acquisition and montaging system (Zeiss Axiostar 200M microscope with MetaMorph Software, Molecular Devices, Sunnyvale, Calif.). […] Three or 4 large field images were used to quantify each section. Stained areas were quantified using MetaMorph or ImageJ software (http://rsb.info.nih.gov/ij/). Images were threshholded and stained area (CD31) was calculated or particles per field were counted (Id1 or Hif1 positive cells). To quantify extent of haemorrhage, H&E whole tumor sections were imaged with a 5× objective and evaluated using the colour threshold function of the Metamorph software.

Row | Compound | tumor growth, agent alone
14 | C=CCNC1=C2C[C@@H](C)C[C@H](OC)[C@H](O)[C@@H](C)/C=C(\C)[C@H](OC(N)=O)[C@@H](OC)/C=C\C=C(/C)C(=O)NC(=CC1=O)C2=O [17-AAG, 17-(allylamino)-17-demethoxygeldanamycin] | delayed tumor growth

Same assay, conditions: mouse, in vivo

Row | Compound | Hif1-alpha expression | Id1-positive endothelial cells in the tumor, agent alone | vascular density
15 | C=CCNC1=C2C[C@@H](C)C[C@H](OC)[C@H](O)[C@@H](C)/C=C(\C)[C@H](OC(N)=O)[C@@H](OC)/C=C\C=C(/C)C(=O)NC(=CC1=O)C2=O [17-AAG, 17-(allylamino)-17-demethoxygeldanamycin] | counteracted this response | decrease of Id1-positive endothelial cells in the tumor | decreased vascular density

System: 4T1 (ATCC CRL-2539) tumor allograft
Assay: In vivo phage display panning, breast carcinoma model, tumor vascular homing phage
Parameters: species or system mouse
Settings: tumors resected 5-7 h post phage injection, 3-4 rounds of panning
Protocol: as §1
Panning was conducted in 4T1 (ATCC CRL-2539) tumor allograft bearing mice. Tumors were resected 5-7 h post phage injection.

Row | Compound | Frequency of enriched sequence
16 | 22 (GHSKAMY; Breast carcinoma tumor vascular homing probe) [compound 22] | 4/12
17 | 23 (GHGASIS; Breast carcinoma tumor vascular homing probe) [compound 23] | 1/12
18 | 24 (NLLAPAG; Breast carcinoma tumor vascular homing probe) [compound 24] | 1/12
19 | 25 (HDLPAVR; Breast carcinoma tumor vascular homing probe) [compound 25] | 1/12
20 | 26 (AMPLPVP; Breast carcinoma tumor vascular homing probe) [compound 26] | 1/12
21 | 27 (HESTWGP; Breast carcinoma tumor vascular homing probe) [compound 27] | 1/12
22 | 28 (CDPRNPNWC; Breast carcinoma tumor vascular homing probe) [compound 28] | 1/12
23 | 29 (CLPRHDPYC) [compound 29] | 1/12
24 | 30 (CPAGQNAHC) [compound 30] | 1/12
